Laboratory results from PubChem BioAssay (NCI).
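Method: 48-hour compound exposure of cells in 96-well plates, five concentrations, linear interpolation of endpoints. TGI: concentration producing complete growth inhibition.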

Legend:
Assay in all cases: NCI-60 cell line screen, 48 h
RPMI-8226 leukemia = tested on: RPMI-8226 leukemia
SK-MEL-5 melanoma = tested on: SK-MEL-5 melanoma
OVCAR-8 ovarian = tested on: OVCAR-8 ovarian
MCF7 breast = tested on: MCF7 breast
KM12 colon = tested on: KM12 colon
NCI-H23 lung = tested on: NCI-H23 lung
PC-3 prostate = tested on: PC-3 prostate
HT29 colon = tested on: HT29 colon
MDA-N = tested on: MDA-N
NCI-H522 lung = tested on: NCI-H522 lung
SF-539 CNS = tested on: SF-539 CNS
A549 NSCLC = tested on: A549 NSCLC
786-0 renal = tested on: 786-0 renal
SN12C renal = tested on: SN12C renal
M14 melanoma = tested on: M14 melanoma
SW-620 colon = tested on: SW-620 colon
SF-268 CNS = tested on: SF-268 CNS
MALME-3M melanoma = tested on: MALME-3M melanoma
SK-OV-3 ovarian = tested on: SK-OV-3 ovarian

Structure (SMILES) | TGI (RPMI-8226 leukemia) [µM] | TGI (SK-MEL-5 melanoma) [µM] | TGI (OVCAR-8 ovarian) [µM] | TGI (MCF7 breast) [µM] | TGI (KM12 colon) [µM] | TGI (NCI-H23 lung) [µM] | TGI (PC-3 prostate) [µM] | TGI (HT29 colon) [µM] | TGI (MDA-N) [µM] | TGI (NCI-H522 lung) [µM] | TGI (SF-539 CNS) [µM] | TGI (A549 NSCLC) [µM] | TGI (786-0 renal) [µM] | TGI (SN12C renal) [µM] | TGI (M14 melanoma) [µM] | TGI (SW-620 colon) [µM] | TGI (SF-268 CNS) [µM] | TGI (MALME-3M melanoma) [µM] | TGI (SK-OV-3 ovarian) [µM]
COc1cc(OC)nc(-n2c(N)c(C#N)c3ccc([N+](=O)[O-])cc3c2=O)n1 | > 100 | > 100 | > 100 | > 100 | > 100 | > 100 | > 100 | > 100 | > 100 | 55.4 | > 100 | > 100 | > 100 | > 100 | > 100 | > 100 | > 100 | – | –
Cc1cc(N(CCC#N)CCC#N)ccc1/C(N=Nc1ccc(C(=O)O)cc1)=N\NC(=O)c1cc(Cl)ccc1O | > 100 | > 100 | 93.1 | > 100 | > 100 | > 100 | > 100 | > 100 | – | 35.9 | – | > 100 | 39.8 | > 100 | > 100 | – | 42.3 | > 100 | 64.5
COc1ccc(-n2c(=O)[nH]n(C(C)=O)c2=O)cc1 | > 100 | > 100 | > 100 | > 100 | > 100 | > 100 | > 100 | > 100 | > 100 | > 100 | > 100 | > 100 | > 100 | > 100 | > 100 | > 100 | > 100 | > 100 | –
CC(C)OCC1CC(CC(=O)Nc2nncs2)C(=O)O1 (stereo not drawn) | > 100 | > 100 | > 100 | > 100 | > 100 | > 100 | > 100 | > 100 | > 100 | – | > 100 | > 100 | > 100 | > 100 | > 100 | > 100 | > 100 | – | > 100
COc1cc2c(cc1OCCCCN1C(=O)c3cccc4cccc(c34)C1=O)N=C[C@@H]1CCCN1C2=O | 27.4 | 4.42 | 82.8 | 22.4 | 13.2 | 11.5 | > 70.3 | 18.8 | – | 4.59 | 7.1 | > 53.4 | 9.73 | 17.7 | > 34.3 | > 38.8 | > 100 | 16.1 | > 74
CC(=O)Oc1ccc(-c2cc3ccccc3oc2=O)cc1 | > 100 | – | > 100 | > 100 | 39.9 | > 100 | > 100 | > 100 | > 100 | > 100 | > 100 | > 100 | > 100 | > 100 | > 100 | > 100 | > 100 | > 100 | –
COc1cc2c(cc1OC)C(=O)/C(=C/c1ccc(Cl)cc1)CC2 | > 10 | > 10 | > 10 | > 10 | > 10 | > 10 | > 10 | > 10 | > 10 | – | > 10 | > 10 | > 10 | > 10 | > 10 | > 10 | > 10 | > 10 | > 10
CCN(CC)/C(Sc1ccccc1)=C(\C(Cl)=C(Cl)Cl)[N+](=O)[O-] | – | 29 | 35.6 | 30.2 | 36.3 | 36.1 | 33.3 | 45.8 | 40.2 | 33.3 | 33 | 52.4 | 37.5 | 37.8 | 37.5 | 40.3 | 58.3 | 39.9 | 73.1
CC(=O)OCC1OC(c2nc3ccccc3s2)=CC(OC(C)=O)C1OC(C)=O (stereo not drawn) | > 100 | > 100 | > 100 | > 100 | > 100 | > 100 | > 100 | > 100 | > 100 | > 100 | > 100 | > 100 | > 100 | > 100 | – | > 100 | > 100 | > 100 | –
CN(C)CCCNc1ccc([N+](=O)[O-])c2nc3ccccc3c(N)c12 | 2.14 | 2.44 | – | > 10 | 1.53 | 2.78 | 1.69 | 1.72 | 2.18 | – | 1.82 | 2.37 | 1.8 | 7.37 | 1.95 | 1.63 | 4.92 | > 10 | 0.987
Cc1ccc(NC2=CC(=O)C(NO)c3ccccc32)cc1 (stereo not drawn) | – | 2.92 | 4.41 | 10.8 | 20.2 | 4.22 | – | 17.1 | 6.75 | – | 8.8 | 10.6 | 17.4 | 10.5 | 11.4 | > 100 | 17.7 | – | 46.6
COc1cc(CO)c(CC(=O)NCCCc2ccccc2)cc1OC | – | > 100 | > 100 | – | > 100 | > 100 | > 100 | > 100 | > 100 | – | – | > 100 | > 100 | > 100 | > 100 | > 100 | – | > 100 | –
COc1ccc(CNC(=O)NCn2cc(-c3ccccc3)nn2)cc1 | > 100 | > 100 | > 100 | > 100 | > 100 | > 100 | > 100 | > 100 | – | > 100 | > 100 | > 100 | > 100 | > 100 | > 100 | > 100 | > 100 | > 100 | –
CCCN(CCCc1ccccc1)CCc1ccc2[nH]c(=S)[nH]c2c1 | 39.9 | – | > 100 | > 100 | > 100 | > 100 | > 100 | – | 41.7 | – | – | > 100 | 25.4 | > 100 | 40 | > 100 | > 100 | 25.5 | > 100
CN1CCN(c2ncc3c(n2)sc2c(=O)n(-c4ccccc4)cnc23)CC1 | > 100 | > 100 | > 100 | – | > 100 | > 100 | > 100 | > 100 | > 100 | > 100 | – | > 100 | > 100 | > 100 | > 100 | > 100 | > 100 | > 100 | > 100
CCCCCCC(=O)O[C@H]1CC[C@H]2[C@@H]3CCC4C/C(=N/NC(=O)c5cccc6c(=O)c7ccccc7[nH]c56)C=C(C)[C@]4(C)[C@H]3CC[C@]12C (stereo partly drawn) | > 25 | > 25 | > 25 | > 25 | > 25 | > 25 | > 25 | > 25 | > 25 | – | > 25 | > 25 | > 25 | > 25 | > 25 | > 25 | > 25 | > 25 | > 25
CCOC(=O)c1c(N)sc2c1C(C)(C(=O)OCC)CC2 (stereo not drawn) | > 100 | > 100 | > 100 | > 100 | > 100 | > 100 | > 100 | > 100 | > 100 | – | – | > 100 | > 100 | > 100 | > 100 | > 100 | – | > 100 | –
CCCCc1ccc(Nc2nc(SC)c3[nH]cnc3n2)cc1 | > 100 | > 100 | > 100 | > 100 | > 100 | > 100 | > 100 | > 100 | – | > 100 | > 100 | > 100 | > 100 | > 100 | > 100 | > 100 | > 100 | > 100 | > 100
N#Cc1c(-c2ccc([N+](=O)[O-])cc2)c(C#N)c(=O)n(NS(=O)(=O)c2ccccc2)c1-c1ccccc1 | > 100 | > 100 | > 100 | > 100 | > 100 | – | > 100 | > 100 | – | > 100 | > 100 | > 100 | > 100 | > 100 | > 100 | > 100 | > 100 | > 100 | > 100
Cc1cn(C2CC(O)C(COC(=O)NCCC(F)(F)C(F)(F)C(F)(F)C(F)(F)F)O2)c(=O)[nH]c1=O (stereo not drawn) | – | > 100 | > 100 | > 100 | > 100 | > 100 | > 100 | > 100 | > 100 | > 100 | > 100 | > 100 | > 100 | > 100 | > 100 | > 100 | > 100 | > 100 | > 100
O=C(c1ccc(Cl)cc1)N(C(=O)N1CCC(c2ccccc2)CC1)c1ccccc1 | 52.3 | 35.2 | > 100 | > 100 | 44.6 | > 100 | 73.8 | > 100 | > 100 | – | > 100 | – | > 100 | > 100 | 88.2 | > 100 | > 100 | 84.6 | > 100
CC1=NN(c2nc(N)nc(CSc3nc4n(c(=S)n3)CCN4)n2)C(C)(C)C1 | > 100 | > 100 | 47.3 | > 100 | > 100 | > 100 | > 100 | > 100 | – | – | > 100 | – | > 100 | – | > 100 | > 100 | 35.2 | – | 71.6
CCOP(=O)(OCC)C(Nc1ccc(Br)cc1)c1cccc([N+](=O)[O-])c1 (stereo not drawn) | 98.2 | 28.3 | > 100 | – | 32.1 | 53 | – | 34.3 | 37.2 | 28 | 45.6 | 34.7 | 44.8 | 37.8 | 37 | 35.4 | 43.6 | 37.9 | 41.5
N#CC(=C1CCN(CCCC(=O)c2ccc(F)cc2)CC1)c1ccccc1 | > 100 | > 100 | > 100 | > 100 | > 100 | > 100 | > 100 | > 100 | – | 95.2 | > 100 | > 100 | > 100 | > 100 | – | > 100 | > 100 | > 100 | > 100
CC[C@@H]1CC[C@@H]2[C@H](CC[C@]3(C)[C@@H](OS(=O)(=O)c4ccc(C)cc4)CC[C@@H]23)[C@H]1COS(=O)(=O)c1ccc(C)cc1 | > 100 | > 100 | > 100 | > 100 | – | – | > 100 | > 100 | > 100 | – | > 100 | > 100 | > 100 | > 100 | > 100 | > 100 | > 100 | > 100 | –
Cn1c(O)c(C=Nc2ccccc2[N+](=O)[O-])c(=O)n(C)c1=O | > 100 | > 100 | > 100 | – | > 100 | > 100 | > 100 | > 100 | > 100 | > 100 | > 100 | > 100 | > 100 | > 100 | > 100 | > 100 | > 100 | > 100 | > 100
CN1CNc2nc(N)n(C)c(=O)c2C1 | – | – | > 10 | – | > 10 | > 10 | – | > 10 | > 10 | > 10 | > 10 | > 10 | > 10 | > 10 | > 10 | – | > 10 | > 10 | > 10
